The source of these data is patent US8410126B2, “Pyrimidine inhibitors of PKTK2” (Boehringer Ingelheim International GmbH, priority 2009, dated 2013).

As a reminder, the IC50 is the concentration that inhibits the measured activity by half. Read a high IC50 as a need for much substance.

This test addresses T1, PTK2 (Homo sapiens, UniProt Q05397).
T1 construct: purchased Invitrogen PV3832
The experiment in a line: PTK2 enzyme test Assay 2 (DELFIA, poly-Glu-Tyr substrate, PT66 antibody). Type of test: biochemical. The settings on record: Assay 2 (values marked *); 1 h pre-incubation, 50 μM ATP mix, final DMSO 0.5%. The text has this:
This test uses active PTK2 enzyme (Invitrogen Code PV3832) and poly-Glu-Tyr (4:1, Sigma P-0275) as the kinase substrate. The kinase activity is detected by means of the phosphorylation of the substrate in a DELFIA™ assay. The phosphorylated substrate is detected with the europium-labelled phosphotyrosine antibody PT66 (Perkin Elmer, No.: AD0040).
In order to determine concentration-activity curves with PTK2-inhibitors the compounds are serially diluted first of all in 100% DMSO and then in kinase dilution buffer (20 mM TRIS/HCl pH 7.5, 0.1 mM EDTA, 0.1 mM EGTA, 0.286 mM sodium orthovanadate, 10% glycerol with the addition of freshly prepared BSA (fraction V, 1 mg/mL) and DTT (1 mM)) and 10 μL of each dilution are dispensed per well in a 96-well microtitre plate (clear U-shaped base plate, Greiner No. 650101) (the inhibitors are tested in duplicates) and mixed with 10 μL/well of PTK2 kinase (0.01 μg/well). PTK2 kinase is diluted accordingly beforehand with kinase dilution buffer. The diluted PTK2 inhibitor and the PTK2 kinase are pre-incubated for 1 h at RT and shaken at 500 revolutions per min. Then 10 μL/well poly-Glu-Tyr substrate (25 μg/well poly-Glu-Tyr, 0.05 μg/well biotinylated poly-Glu-Tyr dissolved in 250 mM TRIS/HCl pH 7.5, 9 mM DTT) are added. The reaction is started by the addition of 20 μL of ATP Mix (30 mM TRIS/HCl pH 7.5, 0.02% Brij, 0.2 mM sodium orthovanadate, 10 mM magnesium acetate, 0.1 mM EGTA, 1× phosphatase inhibitor cocktail 1 (Sigma, No.: P2850), 50 μM ATP (Sigma, No.: A3377; 15 mM stock solution))—the final concentration of DMSO is 0.5%. After 1 h kinase reaction (the plates are shaken at 500 rpm), the reaction is stopped by the addition of 12 μL/well of 100 mM EDTA, pH 8, and shaken for a further 5 min at RT (500 U/min). 55 μL of the reaction mixture are transferred into a streptavidin plate (Strepta Well High Bind (transparent, 96-well) made by Roche, No.: 11989685001) and incubated for 1 h at RT (shaking at 500 rpm). Then the microtitre plate is washed five times with 200 μL/well D-PBS (Invitrogen, No. 14190). 100 μL of a solution containing DELFIA Eu-N1 Anti-Phosphotyrosine PT66 antibody (Perkin Elmer, No.: AD0040, diluted 1:9000 in DELFIA test buffer (Perkin Elmer, No.: 1244-111)) is then added and it is incubated for 1 h at RT (shaking at 500 rpm). Then the plate is washed five times with 200 μL/well DELFIA washing buffer (Perkin Elmer, No.: 1244-114), 200 μL/well strengthening solution (Perkin Elmer, No.: 1244-105) is added and the whole is incubated for 10 min at RT (shaking at 300 rpm).
The time-delayed europium fluorescence is then measured in a microtitre plate reader (VICTOR^3, Perkin Elmer). The positive control consists of wells that contain solvent (0.5% DMSO in test buffer) and display uninhibited kinase activity. Wells that contain test buffer instead of enzyme act as a control for the background kinase activity.
The IC50 values are determined from concentration-activity analyses by iterative calculation using a sigmoid curve analysis algorithm (FIFTY, based on GraphPAD Prism Version 3.03) with a variable Hill coefficient.

T1 sequence (Q05397 whole entry): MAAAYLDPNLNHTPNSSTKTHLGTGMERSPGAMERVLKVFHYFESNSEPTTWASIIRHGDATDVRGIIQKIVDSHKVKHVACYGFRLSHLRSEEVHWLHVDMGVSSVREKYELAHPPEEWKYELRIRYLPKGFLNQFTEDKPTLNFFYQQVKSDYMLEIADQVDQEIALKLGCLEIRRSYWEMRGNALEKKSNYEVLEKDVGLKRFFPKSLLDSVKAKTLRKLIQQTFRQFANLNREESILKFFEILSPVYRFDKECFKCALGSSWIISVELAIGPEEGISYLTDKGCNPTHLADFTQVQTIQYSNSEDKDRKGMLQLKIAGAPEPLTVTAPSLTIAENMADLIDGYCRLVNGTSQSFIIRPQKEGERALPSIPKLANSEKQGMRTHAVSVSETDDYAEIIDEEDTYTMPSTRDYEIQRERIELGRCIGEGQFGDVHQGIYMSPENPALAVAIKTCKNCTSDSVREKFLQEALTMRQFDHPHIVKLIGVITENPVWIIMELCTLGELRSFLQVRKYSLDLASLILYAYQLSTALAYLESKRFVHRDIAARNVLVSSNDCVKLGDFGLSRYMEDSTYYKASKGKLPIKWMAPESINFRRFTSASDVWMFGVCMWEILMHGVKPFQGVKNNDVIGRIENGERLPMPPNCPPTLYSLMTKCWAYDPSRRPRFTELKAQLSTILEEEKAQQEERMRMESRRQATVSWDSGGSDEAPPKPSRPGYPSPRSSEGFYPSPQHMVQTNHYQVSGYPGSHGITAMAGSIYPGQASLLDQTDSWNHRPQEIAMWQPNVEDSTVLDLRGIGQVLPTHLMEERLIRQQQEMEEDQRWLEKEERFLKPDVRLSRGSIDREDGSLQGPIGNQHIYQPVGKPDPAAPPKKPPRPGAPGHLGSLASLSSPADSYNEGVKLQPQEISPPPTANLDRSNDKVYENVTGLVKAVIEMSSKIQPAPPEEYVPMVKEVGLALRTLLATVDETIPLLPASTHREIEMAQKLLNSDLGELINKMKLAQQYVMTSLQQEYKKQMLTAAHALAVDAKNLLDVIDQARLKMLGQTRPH

As for `COc1ccc(C(=O)NC2CCN(C)CC2)cc1Nc1ncc(C(F)(F)F)c(N[C@@H]2Cc3ccccc3[C@H]2N(C)S(C)(=O)=O)n1` [Example I-69], the IC50 stood at 0.37 nM.
Compound `COc1cc(NC(=O)C2CCN(C)C2)ccc1Nc1ncc(C(F)(F)F)c(N[C@@H]2Cc3ccccc3[C@H]2N(C)S(C)(=O)=O)n1` (some centres unmarked) [Example I-72] showed an IC50 of 0.74 nM. Against the preceding compound, the IC50 is about 2-fold higher.
Next, `COc1cc(NC(=O)C2CCN(C)CC2)ccc1Nc1ncc(C(F)(F)F)c(N[C@@H]2Cc3ccccc3[C@H]2N(C)S(C)(=O)=O)n1` [Example I-73, 1-methyl-piperidine-4-carboxylic acid (4-{4-[(1R,2R)-1-(methanesulphonyl-methyl-amino)-indan-2-ylamino]-5-trifluoromethyl-pyrimidin-2-ylamino}-3-methoxy-phenyl)-amide]: 0.48 nM; `COc1cc(N2CCNCC2)c(C)cc1Nc1ncc(C(F)(F)F)c(N[C@@H]2Cc3ccccc3[C@H]2N(C)S(C)(=O)=O)n1` [Example I-74, N-{(1R,2R)-2-[2-(2-methoxy-5-methyl-4-piperazin-1-yl-phenylamino)-5-trifluoromethyl-pyrimidin-4-ylamino]-indan-1-yl}-N-methyl-methanesulphonamide]: 0.66 nM; `COc1cc(F)c(C(=O)NC2CCN(C)CC2)cc1Nc1ncc(Cl)c(N[C@@H]2Cc3ccccc3[C@H]2N(C)S(C)(=O)=O)n1` [Example I-75, 5-{5-chloro-4-[(1R,2R)-1-(methanesulphonyl-methyl-amino)-indan-2-ylamino]-pyrimidin-2-ylamino}-2-fluoro-4-methoxy-N-(1-methyl-piperidin-4-yl)-benzamide]: 0.3 nM.
Consider `COc1cc(N2CCNCC2)c(Cl)cc1Nc1ncc(C(F)(F)F)c(N[C@@H]2Cc3ccccc3[C@H]2N(C)S(C)(=O)=O)n1` [Example I-76, N-{(1R,2R)-2-[2-(5-chloro-2-methoxy-4-piperazin-1-yl-phenylamino)-5-trifluoromethyl-pyrimidin-4-ylamino]-indan-1-yl}-N-methyl-methanesulphonamide], for which inhibition was half-maximal at 0.76 nM (IC50).
On to `COc1cc(N2CCN(C)CC2)c(C)cc1Nc1ncc(C(F)(F)F)c(N[C@@H]2Cc3ccccc3[C@H]2N(C)S(C)(=O)=O)n1` [Example I-77], for which the half-inhibitory concentration (IC50) came out at 0.56 nM.
In the case of `COc1cc(N2CCN(C(C)(C)C)CC2)c(C)cc1Nc1ncc(C(F)(F)F)c(N[C@@H]2Cc3ccccc3[C@H]2N(C)S(C)(=O)=O)n1` [Example I-78, N-((1R,2R)-2-{2-[4-(4-tert-butyl-piperazin-1-yl)-2-methoxy-5-methyl-phenylamino]-5-trifluoromethyl-pyrimidin-4-ylamino}-indan-1-yl)-N-methyl-methanesulphonamide], it took 0.83 nM to reach half-maximal inhibition (IC50).
For `COc1cc(NC(=O)N(C)C)ccc1Nc1ncc(C(F)(F)F)c(N[C@@H]2Cc3ccccc3[C@H]2N(C)S(C)(=O)=O)n1` [Example I-79], the half-inhibitory concentration (IC50) amounted to 0.23 nM. Against the preceding compound, the IC50 is about 3.6-fold lower.
Consider `COc1cc(F)c(C(=O)NC2CCN(C)CC2)cc1Nc1ncc(C(F)(F)F)c(N[C@@H]2Cc3ccccc3[C@H]2N(C)S(C)(=O)=O)n1` [Example I-80, 2-fluoro-5-{4-[(1R,2R)-1-(methanesulphonyl-methyl-amino)-indan-2-ylamino]-5-trifluoromethyl-pyrimidin-2-ylamino}-4-methoxy-N-(1-methyl-piperidin-4-yl)-benzamide], for which half-maximal inhibition (IC50) was put at 0.36 nM. This IC50 lies about 1.6-fold higher than the previous one.
Take `COc1ccc(C(=O)N(C)C2CCN(C)CC2)cc1Nc1ncc(C(F)(F)F)c(N[C@@H]2Cc3ccccc3[C@H]2N(C)S(C)(=O)=O)n1` [Example I-81]: inhibition was half-maximal at 0.43 nM (IC50).
Next, `COc1cc(C)c(C(=O)NC2CCOCC2)cc1Nc1ncc(C(F)(F)F)c(N[C@@H]2Cc3ccccc3[C@H]2N(C)S(C)(=O)=O)n1` [Example I-82]: 0.36 nM.
Turning to `COc1cc(C(=O)NN2CCN(C)CC2)ccc1Nc1ncc(C(F)(F)F)c(N[C@@H]2Cc3ccccc3[C@H]2N(C)S(C)(=O)=O)n1` [Example I-83], inhibition was half-maximal at 0.47 nM (IC50). This IC50 and that of the compound before are within 1.5-fold of each other.
With `COc1ccc(C(=O)N(C)CCN2CCCC2)cc1Nc1ncc(C(F)(F)F)c(N[C@@H]2Cc3ccccc3[C@H]2N(C)S(C)(=O)=O)n1` [Example I-85], the IC50 was 0.44 nM. The IC50 values of the last two compounds are within 1.5-fold of each other.
